# Results taken from paper PMC10222456, “Application of Physiologically Based Pharmacokinetic Modeling to Predict Drug–Drug Interactions between Elexacaftor/Tezacaftor/Ivacaftor and Tacrolimus in Lung Transplant Recipients” (Pharmaceutics, 2023).
# Several values for one entry are separate records, joined by “and”; a condition that tells them apart may be missing. Identical values can stand only once. Like-named read-outs stand apart in the source and are kept apart here.
# Tests used:
# [1] = test system: CYP3A; design: method as in earlier work; conditions: cited from earlier work
# [2] = test system: CYP3A; conditions: cited from earlier work; for AUC ratio: co-administration with posaconazole 400 mg twice daily
# [3] = test system: CYP3A; assay: PBPK simulation of clinical DDI studies (model verification); design: species or system human
# Experimental: For verification simulations, the dose and schedule of drugs were matched to the design of the corresponding clinical DDI study performed in healthy volunteers.
# The input parameters of these CYP3A substrates are available in the compound library of Simcyp version 21: SV-Ethinylestradiol and Sim-Midazolam. […] For the ivacaftor–ethinylestradiol situation, ivacaftor 150 mg was administered orally twice daily for 28 days, while ethinylestradiol oral 0.035 mg was administered once daily for 21 days.
# The PBPK models for posaconazole and voriconazole as CYP3A inhibitors were built according to the publications by Hong and Li et al., respectively. For the posaconazole–tacrolimus DDI study, posaconazole was administered orally at a dose of 400 mg twice daily for 7 days, and a single oral dose of tacrolimus 0.05 mg/kg was administered on day 7. For the voriconazole–tacrolimus DDI, voriconazole was administered orally at a dose of 400 mg twice daily for the first day, followed by 200 mg twice daily for the next 6 days, and a single oral dose of tacrolimus 0.1 mg/kg was administered on day 7.
# To quantify the DDIs, the geometric mean ratios of AUC or Cmax in the presence or absence of CYP3A modulators were determined. The assessment of the DDI prediction success was based on whether predictions fell within a twofold range of the observed data.
# [4] = cited from earlier work
# [5] = cited from earlier work; remark: listed apart in the source
# [6] = test system: CYP3A4; conditions: set to capture observed DDIs with ketoconazole or rifampin; cited from earlier work
# [7] = cited from earlier work; remark: listed apart in the source
# [8] = cited from earlier work; remark: listed apart in the source
# [9] = Clinical case series: tacrolimus trough levels before and after starting ETI in CF lung transplant recipients; assay type: in vivo, human
# Experimental: This was an IRB-approved, retrospective, single-center cohort study that reviewed all CF lung transplant recipients prescribed ETI post lung transplantation. Patients were included if they were 18 years of age or older with CF, with at least one F508del mutation/minimal function genotype or a mutation in the CFTR gene that is responsive to ETI based on in vitro data. To evaluate the impact of ETI on tacrolimus exposure, tacrolimus trough levels were recorded before and up to one month after starting ETI. Patients had to be clinically stable, with no significant changes in health status, or initiating new medications known to modulate CYP3A4 and/or P-gp one month before or after starting ETI. Patients lost to follow-up or with missing tacrolimus trough levels were excluded.
# Collected data included age, sex, weight, baseline lung function, body mass index, CFTR genotype, additional comorbidities, transplant and ETI start dates, ETI and tacrolimus dosing regimens, concurrent CYP3A4 modulators, and tacrolimus blood levels.
# Baseline lung function was defined as the highest forced expiratory volume in one second (FEV1) during the year prior to initiating ETI therapy, obtained from routine pulmonary function tests. Percent predicted FEV1 (ppFEV1) was then extrapolated using the Global Lung Function Initiative 2012 prediction equation [35]. Tacrolimus troughs were measured through routine clinical laboratory blood draws and analyzed by validated immunoturbidometric protocols. To assess the effects of ETI, tacrolimus doses and concentrations within one month before and after ETI start were recorded. The steady state for tacrolimus and ETI were estimated to be attained within four to five half-lives after starting a regimen. Tacrolimus troughs were recorded at least 2–3 days after a dose change and 5–6.5 days post ETI initiation, based on elexacaftor’s longest half-life of the three CFTR modulators. Furthermore, to explore potential variability in the adherence to therapy and the timing of blood draws, tacrolimus trough levels within one month post ETI were averaged. For two patients with a changed tacrolimus dose immediately prior to ETI initiation and without a corresponding trough level, we captured the next most recent dose and trough within a three-month period.
# All statistical analyses were performed using GraphPad version 8.0.2, with a two-sided significance value of 0.05.
# [10] = PBPK simulation of plasma or blood pharmacokinetics (Simcyp); conditions: single dose oral or intravenous, Cmax and AUC
# Source text: The PBPK models were implemented within the Simcyp Simulator (version 21; Certara, Sheffield, UK). To mimic the CF population, the distribution of ages and proportion of females were corrected to reflect the demographics of the CF population in the default healthy population library file (Sim-Healthy volunteers) provided in Simcyp® [18]. […] Further, the proportion of females was adjusted from 0.32 in the healthy population to 0.48 in CF. For the trial design, we used a population size of 100 (10 trials with 10 subjects in each trial).
# Ivacaftor was orally administered under fed conditions to mimic the clinical setting, where a fat-containing food is required for optimal absorption. The simulated data were qualified using the plasma PK data observed in an adult CF population [11].
# The whole-blood PK profiles of tacrolimus following single-dose administration (0.05 mg/kg oral or 0.01 mg/kg iv infusion for 4 h) were simulated to verify the performance of the tacrolimus model. Tacrolimus was administered under fasted conditions to mimic the clinical study. The simulated data were qualified using the blood PK data observed in a healthy adult population [24].
# The prediction accuracies for the area under the curve (AUC) and maximum plasma concentration (Cmax) values were calculated as a ratio of mean observed over mean predicted values. […]
# [11] = test system: CYP3A5; design: method as in Dai et al. [23]; conditions: ref Dai et al. [23], cited from earlier work
# [12] = target: CYP3A4 (Homo sapiens, UniProt P08684); design: method as in Dai et al. [23]; conditions: ref Dai et al. [23], cited from earlier work
# [13] = design: method as in Emoto et al. [25]; conditions: ref Emoto et al. [25], cited from earlier work
# [14] = test system: Caco-2 cell; design: method as in Gertz et al. [22]; conditions: ref Gertz et al. [22]; cited from earlier work
# [15] = cited from earlier work; remark: listed apart in the source
# [16] = victim drug +/− ivacaftor 150 mg oral twice daily, healthy volunteers
# [17] = ivacaftor 150 mg q12h oral, plasma, adult CF population
# [18] = individual patients 1–13, dose normalized
# [19] = tacrolimus 0.05 mg/kg single dose oral, blood, healthy adults
# [20] = tacrolimus 0.1 mg/kg single dose iv infusion (4 h), blood, healthy adults
# Chain of CYP3A4 (Homo sapiens, UniProt P08684) (P08684 whole entry): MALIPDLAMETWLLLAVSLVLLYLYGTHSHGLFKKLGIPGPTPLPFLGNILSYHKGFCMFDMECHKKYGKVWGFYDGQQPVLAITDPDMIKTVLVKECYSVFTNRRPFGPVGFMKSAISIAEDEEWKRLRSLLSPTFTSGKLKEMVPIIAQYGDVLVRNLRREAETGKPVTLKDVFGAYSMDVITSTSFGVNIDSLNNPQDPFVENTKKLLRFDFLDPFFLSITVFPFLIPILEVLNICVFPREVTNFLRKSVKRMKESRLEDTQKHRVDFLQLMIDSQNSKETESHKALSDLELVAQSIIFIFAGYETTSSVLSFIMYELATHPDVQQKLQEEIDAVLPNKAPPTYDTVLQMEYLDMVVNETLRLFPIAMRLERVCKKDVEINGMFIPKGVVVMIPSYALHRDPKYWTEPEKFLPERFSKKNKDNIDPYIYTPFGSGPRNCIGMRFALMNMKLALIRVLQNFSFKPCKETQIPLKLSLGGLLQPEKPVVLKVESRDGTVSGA
smiles,measurement,setting,value
Cc1nn(C)cc1S(=O)(=O)NC(=O)c1ccc(-n2ccc(OCC(C)(C)C(F)(F)F)n2)nc1N1C[C@@H](C)CC1(C)C [elexacaftor],effect on the activity of CYP3A,[1],no significant effect
C#C[C@]1(O)CC[C@H]2[C@@H]3CCc4cc(O)ccc4[C@H]3CC[C@@]21C [ethinylestradiol],"AUC Ratio, Observed GMR (90% CI)",[2]; [16],"1.07 (1.00, 1.14)"
same,"Cmax Ratio, Observed GMR (90% CI)",[2]; [16],"1.22 (1.10, 1.36)"
same,"AUC Ratio, Ratio (Simulated/Observed)",[3]; victim drug +/− ivacaftor,1.07
same,"Cmax Ratio, Ratio (Simulated/Observed)",[3]; victim drug +/− ivacaftor,0.91
CC(C)(C)c1cc(C(C)(C)C)c(NC(=O)c2c[nH]c3ccccc3c2=O)cc1O [ivacaftor],Tmax,"[4]; human, in vivo",2 to 6 h
same,half-life,"[4]; human, in vivo",15 h
same,logP,[5]; ivacaftor model input,5.68
same,fraction metabolized by CYP3A4 (fmCYP3A4),[6],98%
same,Observed AUC (0–12 h) (mean),[7]; [17],"12,100 ng∙h/mL"
same,Observed Cmax (mean),[7]; [17],1270 ng/mL
same,fraction of unbound drug in plasma (fu),[8]; ivacaftor model input,0.001
Cc1ncc2n1-c1ccc(Cl)cc1C(c1ccccc1F)=NC2 [midazolam],oral bioavailability,[4],31–72%
same,AUC ratio,[2],4.97
same,"AUC Ratio, Observed GMR (90% CI)",[2]; [16],"1.54 (1.39, 1.69)"
same,"Cmax Ratio, Observed GMR (90% CI)",[2]; [16],"1.38 (1.26, 1.52)"
same,"AUC Ratio, Ratio (Simulated/Observed)",[3]; victim drug +/− ivacaftor,1.09
same,"Cmax Ratio, Ratio (Simulated/Observed)",[3]; victim drug +/− ivacaftor,1.09
C=CC[C@@H]1/C=C(\C)C[C@H](C)C[C@H](OC)[C@H]2O[C@@](O)(C(=O)C(=O)N3CCCC[C@H]3C(=O)O[C@H](/C(C)=C/[C@@H]3CC[C@@H](O)[C@H](OC)C3)[C@H](C)[C@@H](O)CC1=O)[C@H](C)C[C@@H]2OC [tacrolimus],"TAC DN Trough Level, Post-ETI, Median",[9]; N = 13 cohort,96.12 ng/mL per mg/kg/day
same,"TAC DN Trough Level, Pre-ETI, Median",[9]; N = 13 cohort,73.41 ng/mL per mg/kg/day
same,"TAC Trough Concentration, Post-ETI, Median",[9]; N = 13 cohort,9.05 ng/mL
same,"TAC Trough Concentration, Pre-ETI, Median",[9]; N = 13 cohort,7.50 ng/mL
same,"Percent Difference DN Trough, Median (increase after starting ETI)","[9]; N = 13 cohort, p = 0.0479",32%
same,"TAC Trough Concentration, Post-ETI","[9]; individual patients 1–13, averaged within one month post ETI",9.50 ng/mL and 3.40 ng/mL and 8.90 ng/mL and 6.10 ng/mL and 5.58 ng/mL and 6.70 ng/mL and 9.05 ng/mL and 15.70 ng/mL and 14.10 ng/mL and 9.75 ng/mL and 9.73 ng/mL and 8.45 ng/mL and 11.30 ng/mL
same,Percent Difference DN Trough,"[9]; individual patients 1–13, post- vs pre-ETI",62.10% and −57.76% and 30.93% and −6.95% and −47.69% and 35.60% and 53.90% and 125.51% and 74.90% and 65.49% and 32.22% and −21.64% and 13.23%
same,"TAC Trough Concentration, Pre-ETI","[9]; individual patients 1–13, within one month before ETI start",5.60 ng/mL and 7.30 ng/mL and 7.10 ng/mL and 6.60 ng/mL and 11.40 ng/mL and 6.90 ng/mL and 8.40 ng/mL and 7.70 ng/mL and 7.50 ng/mL and 10.40 ng/mL
same,"TAC DN Trough Level, Post-ETI",[9]; [18],245.10 ng/mL per mg/kg/day and 19.30 ng/mL per mg/kg/day and 96.12 ng/mL per mg/kg/day and 101.40 ng/mL per mg/kg/day and 42.88 ng/mL per mg/kg/day and 62.88 ng/mL per mg/kg/day and 68.78 ng/mL per mg/kg/day and 162.86 ng/mL per mg/kg/day and 82.64 ng/mL per mg/kg/day and 451.10 ng/mL per mg/kg/day and 193.04 ng/mL per mg/kg/day and 54.29 ng/mL per mg/kg/day and 454.83 ng/mL per mg/kg/day
same,"TAC DN Trough Level, Pre-ETI",[9]; [18],151.20 ng/mL per mg/kg/day and 45.68 ng/mL per mg/kg/day and 73.41 ng/mL per mg/kg/day and 108.97 ng/mL per mg/kg/day and 81.98 ng/mL per mg/kg/day and 46.37 ng/mL per mg/kg/day and 44.69 ng/mL per mg/kg/day and 72.22 ng/mL per mg/kg/day and 47.25 ng/mL per mg/kg/day and 272.58 ng/mL per mg/kg/day and 146.00 ng/mL per mg/kg/day and 69.29 ng/mL per mg/kg/day and 401.70 ng/mL per mg/kg/day
same,increase in tacrolimus DN trough levels,[9]; patients on a full dose of ETI,32%
same,increase in tacrolimus DN trough levels,[9]; subgroup of 4 patients on CYP3A4 modulators and reduced ETI dose,22%
same,oral bioavailability,[4],< 20%
same,bioavailability,[4]; significantly affected by the presence of food,5–93%
same,ratio of the predicted to observed PK parameters,[10],0.8–1.3
same,CYP3A5 Vmax,[11]; 12-hydroxylation,1.4 pmol/min/pmol CYP
same,Km,[11]; 12-hydroxylation,0.35 µM
same,CYP3A5 Vmax,[11]; 13-O-desmethylation,17 pmol/min/pmol CYP
same,Km,[11]; 13-O-desmethylation,0.21 µM
same,Compound type,[5]; ref Gertz et al. [21],Neutral
same,Log Po:w,[5]; ref Gertz et al. [21],3.3
same,CYP3A4 Vmax,[12]; 12-hydroxylation,0.6 pmol/min/pmol CYP
same,Km,[12]; 12-hydroxylation,0.29 µM
same,CYP3A4 Vmax,[12]; 13-O-desmethylation,8 pmol/min/pmol CYP
same,Km,[12]; 13-O-desmethylation,0.21 µM
same,ka (absorption rate constant),[13]; first-order absorption model,3.68 h⁻¹
same,kin,[13]; minimal PBPK model,0.68 h⁻¹
same,kout,[13]; minimal PBPK model,0.10 h⁻¹
same,Lag time,[13],0.43 h
same,Vsac (single adjusted compartment volume),[13],10.8 L/kg
same,fa (fraction available from dosage form),[13],1.0
same,Caco-2 permeability,[14],13.1 10^−6 cm/s
same,AUC ratio,[2],4.58
same,"AUC Ratio, Observed GMR (90% CI)",[2]; tacrolimus +/− posaconazole,"4.5 (4.0, 5.2)"
same,"Cmax Ratio, Observed GMR (90% CI)",[2]; tacrolimus +/− posaconazole,"2.0 (2.0, 2.4)"
same,"AUC Ratio, Observed GMR (90% CI)",[2]; tacrolimus +/− voriconazole,"3.0 (2.7, 3.8)"
same,"Cmax Ratio, Observed GMR (90% CI)",[2]; tacrolimus +/− voriconazole,"2.0 (1.9, 2.5)"
same,increase of tacrolimus concentration,"[2]; with clarithromycin, despite a 64% reduction in the tacrolimus dose",fourfold
same,Observed AUC (0–108 h) (mean),[7]; [19],307 ng·h/mL
same,Observed Cmax (mean),[7]; [19],37.8 ng/mL
same,Observed AUC (0–264 h) (mean),[7]; [20],378 ng·h/mL
same,Observed Cmax (mean),[7]; [20],21.4 ng/mL
same,dose excreted unchanged in urine,[15],less than 1%
same,unchanged tacrolimus as share of total radioactivity excreted in feces,[15]; in vivo,less than 1%
same,"AUC Ratio, Ratio (Simulated/Observed)",[3]; tacrolimus +/− posaconazole,0.98
same,"Cmax Ratio, Ratio (Simulated/Observed)",[3]; tacrolimus +/− posaconazole,1.20
same,"AUC Ratio, Ratio (Simulated/Observed)",[3]; tacrolimus +/− voriconazole,1.07
same,"Cmax Ratio, Ratio (Simulated/Observed)",[3]; tacrolimus +/− voriconazole,1.00
same,predicted AUC and Cmax ratio relative to the observed values,"[3]; tacrolimus model as victim, DDIs with posaconazole or voriconazole",0.98 to 1.20
same,B/P (blood-to-plasma ratio),[8]; ref Gertz et al. [21],35
CC(C)(CO)c1cc2cc(NC(=O)C3(c4ccc5c(c4)OC(F)(F)O5)CC3)c(F)cc2n1C[C@@H](O)CO [tezacaftor],effect on the activity of CYP3A,[1],no significant effect
